Experimental data taken from patent US20260092071A1, “COMPOUNDS AND COMPOSITIONS AS SMARCA2/4 DEGRADERS AND USES THEREOF” (REGENTS OF THE UNIVERSITY OF MICHIGAN, priority 2022, published 2026).
Like-named read-outs stand apart in the source and are kept apart here.

Legend:
SMARCA4 = SMARCA4 (Homo sapiens, UniProt P51532); experiment: HiBiT assay for protein degradation, Hela SMARCA4-HiBiT cells (A series); assay type: cell-based; design: fuse HiBiT to the carboxy terminus of SMARCA2 (Promega CS302365) or SMARCA4 (Promega CS3023225); host or cells: HeLa (CRISPR/Cas9 HiBiT knock-in); conditions: for DC50: read-out: SMARC A4 Hela HiBit DC50
Summary of the method: (§1)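 HeLa cells engineered by CRISPR/Cas9 to carry a HiBiT tag fused to the C-terminus of SMARCA4 (Promega CS3023225) were grown in DMEM supplemented with FBS and penicillin-streptomycin. After compound exposure, remaining SMARCA4 protein was quantified using the Nano-Glo® HiBiT Lytic Detection Assay (Promega N3050), and curves were fitted in GraphPad Prism.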

SMARCA2 = SMARCA2 (Homo sapiens, UniProt P51531); experiment: HiBiT assay for protein degradation, Hela SMARCA2-HiBiT cells (A series); assay type: cell-based; design: Hela cells were genetically modified via CRISPR/Cas9 to fuse HiBiT to the carboxy terminus of SMARCA2; host or cells: HeLa (CRISPR/Cas9 HiBiT knock-in); conditions: for DC50: read-out: SMARC A2 Hela HiBit DC50; for Dmax: read-out: SMARC A2 Hela HiBit Dmax (%);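 for SMARC A2 Hela HiBit Dmax (%): 24 h compound treatment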
Summary of the method: as §1, with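 “SMARCA2” for “SMARCA4”, “CS302365)” for “CS3023225)”, “treatment,” for “compound exposure,”, “with” for “using”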

[1] = Hela SMARCA4-HiBiT cells, 24 hours treatment
[2] = Hela SMARCA2-HiBiT cells, 24 hours treatment
[3] = Hela SMARCA4-HiBiT cells, 24 hours treatment, read-out: SMARC A4 Hela HiBit Dmax
[4] = Hela SMARCA4-HiBiT cells, 24 hours treatment, read-out: SMARC A4 Hela HiBit Dmax(%)

Chain of SMARCA4 (P51532 whole entry, the tested form may be a part): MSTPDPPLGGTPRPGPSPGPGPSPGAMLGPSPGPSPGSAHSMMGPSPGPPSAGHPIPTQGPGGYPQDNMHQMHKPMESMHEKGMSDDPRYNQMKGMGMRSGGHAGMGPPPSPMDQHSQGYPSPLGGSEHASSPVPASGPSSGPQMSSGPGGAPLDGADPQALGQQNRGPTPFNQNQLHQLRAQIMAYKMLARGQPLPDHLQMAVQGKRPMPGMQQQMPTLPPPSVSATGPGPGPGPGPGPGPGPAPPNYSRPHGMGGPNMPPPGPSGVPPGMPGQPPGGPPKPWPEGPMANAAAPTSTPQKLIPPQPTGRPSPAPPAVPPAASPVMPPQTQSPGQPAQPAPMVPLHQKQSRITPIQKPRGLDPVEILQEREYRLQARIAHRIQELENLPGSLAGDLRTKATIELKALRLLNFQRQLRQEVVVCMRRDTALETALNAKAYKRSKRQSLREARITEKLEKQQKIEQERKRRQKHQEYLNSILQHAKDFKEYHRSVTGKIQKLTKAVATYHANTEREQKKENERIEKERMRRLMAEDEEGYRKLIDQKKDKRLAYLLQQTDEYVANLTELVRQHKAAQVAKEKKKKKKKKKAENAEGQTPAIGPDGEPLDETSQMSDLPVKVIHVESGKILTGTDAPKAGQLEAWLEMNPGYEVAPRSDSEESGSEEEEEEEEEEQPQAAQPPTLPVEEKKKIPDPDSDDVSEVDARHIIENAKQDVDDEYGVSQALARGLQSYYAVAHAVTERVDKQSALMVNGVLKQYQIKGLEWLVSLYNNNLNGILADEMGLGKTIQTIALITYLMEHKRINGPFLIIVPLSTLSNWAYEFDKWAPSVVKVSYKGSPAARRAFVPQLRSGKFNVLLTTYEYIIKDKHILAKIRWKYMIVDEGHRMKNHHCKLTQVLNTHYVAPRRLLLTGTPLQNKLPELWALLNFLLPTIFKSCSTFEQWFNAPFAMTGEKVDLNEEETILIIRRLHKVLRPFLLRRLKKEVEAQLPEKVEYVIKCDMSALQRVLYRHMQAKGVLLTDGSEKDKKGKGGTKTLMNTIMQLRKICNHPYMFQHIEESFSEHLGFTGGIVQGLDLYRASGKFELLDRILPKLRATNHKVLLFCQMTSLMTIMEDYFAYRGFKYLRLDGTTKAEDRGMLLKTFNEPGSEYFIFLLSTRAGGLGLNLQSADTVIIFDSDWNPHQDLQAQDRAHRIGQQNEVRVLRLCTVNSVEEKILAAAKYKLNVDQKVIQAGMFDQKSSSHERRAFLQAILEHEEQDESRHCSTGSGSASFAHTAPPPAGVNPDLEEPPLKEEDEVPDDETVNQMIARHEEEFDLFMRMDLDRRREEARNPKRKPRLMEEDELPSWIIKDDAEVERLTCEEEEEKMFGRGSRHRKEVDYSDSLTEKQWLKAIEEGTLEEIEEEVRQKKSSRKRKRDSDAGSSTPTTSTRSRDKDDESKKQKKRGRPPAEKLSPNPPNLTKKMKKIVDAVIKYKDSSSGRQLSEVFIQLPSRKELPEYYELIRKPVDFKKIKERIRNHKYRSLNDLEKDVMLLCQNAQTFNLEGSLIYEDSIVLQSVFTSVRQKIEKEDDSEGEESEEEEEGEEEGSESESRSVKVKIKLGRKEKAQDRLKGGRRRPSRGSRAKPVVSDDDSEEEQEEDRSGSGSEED
Chain of SMARCA2 (P51531 whole entry): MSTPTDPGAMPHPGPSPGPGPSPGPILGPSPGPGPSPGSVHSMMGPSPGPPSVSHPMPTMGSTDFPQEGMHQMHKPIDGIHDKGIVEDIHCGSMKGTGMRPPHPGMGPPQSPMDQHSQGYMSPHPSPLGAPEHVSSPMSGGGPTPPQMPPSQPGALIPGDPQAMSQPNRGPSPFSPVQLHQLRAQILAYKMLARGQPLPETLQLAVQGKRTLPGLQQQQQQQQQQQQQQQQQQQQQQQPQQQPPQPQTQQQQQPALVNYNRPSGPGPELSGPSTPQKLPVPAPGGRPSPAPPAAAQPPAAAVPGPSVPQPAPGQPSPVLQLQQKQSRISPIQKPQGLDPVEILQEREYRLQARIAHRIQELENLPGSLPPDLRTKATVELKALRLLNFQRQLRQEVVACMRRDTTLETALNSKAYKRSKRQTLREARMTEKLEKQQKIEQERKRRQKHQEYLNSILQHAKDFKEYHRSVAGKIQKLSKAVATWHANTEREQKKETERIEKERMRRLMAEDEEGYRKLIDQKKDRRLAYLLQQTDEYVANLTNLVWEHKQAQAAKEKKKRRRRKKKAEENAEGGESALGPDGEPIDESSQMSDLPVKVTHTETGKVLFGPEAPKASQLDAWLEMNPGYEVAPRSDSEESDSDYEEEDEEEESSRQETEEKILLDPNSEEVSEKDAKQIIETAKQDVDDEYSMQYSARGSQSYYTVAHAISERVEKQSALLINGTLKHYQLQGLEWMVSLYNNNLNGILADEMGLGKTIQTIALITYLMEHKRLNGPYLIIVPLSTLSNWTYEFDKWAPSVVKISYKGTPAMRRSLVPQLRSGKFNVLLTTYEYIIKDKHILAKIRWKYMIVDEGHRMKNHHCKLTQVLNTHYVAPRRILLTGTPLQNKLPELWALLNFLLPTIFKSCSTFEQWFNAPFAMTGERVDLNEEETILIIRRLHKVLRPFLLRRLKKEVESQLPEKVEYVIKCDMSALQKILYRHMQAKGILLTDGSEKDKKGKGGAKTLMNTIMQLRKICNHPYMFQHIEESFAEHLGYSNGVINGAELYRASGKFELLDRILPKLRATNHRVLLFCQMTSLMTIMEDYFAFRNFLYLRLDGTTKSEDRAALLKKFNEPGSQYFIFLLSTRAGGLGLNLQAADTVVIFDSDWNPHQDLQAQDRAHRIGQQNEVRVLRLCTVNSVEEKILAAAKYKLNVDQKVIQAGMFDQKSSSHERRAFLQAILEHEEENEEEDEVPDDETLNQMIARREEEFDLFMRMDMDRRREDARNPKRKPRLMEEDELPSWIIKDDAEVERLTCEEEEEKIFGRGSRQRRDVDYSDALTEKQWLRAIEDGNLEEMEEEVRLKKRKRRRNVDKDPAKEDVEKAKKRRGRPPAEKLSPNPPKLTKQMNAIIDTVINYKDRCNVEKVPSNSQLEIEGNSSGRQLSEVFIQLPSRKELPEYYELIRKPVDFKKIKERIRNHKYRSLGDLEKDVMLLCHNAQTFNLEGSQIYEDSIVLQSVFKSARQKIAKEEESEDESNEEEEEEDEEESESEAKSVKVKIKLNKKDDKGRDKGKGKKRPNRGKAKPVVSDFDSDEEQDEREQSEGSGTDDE

Cc1ncsc1-c1ccc([C@H](C)NC(=O)[C@@H]2C[C@@H](O)CN2C(=O)[C@@H](n2cc(CCCN3CCC(c4ccc5c(c4)-n4c(nc(=O)c6c(Br)cccc64)C54CCCCC4)CC3)nn2)C(C)(C)C)cc1 [Compound A44, (2S,4R)-1-((S)-2-(4-(3-(4-(4′-bromo-5′-oxo-5′H-spiro[cyclohexane-1,7′-indolo[1,2-a]quinazolin]-10′-yl)piperidin-1-yl)propyl)-1H-1,2,3-triazol-1-yl)-3,3-dimethylbutanoyl)-4-hydroxy-N—((S)-1-(4-(4-methylthiazol-5-yl)phenyl)ethyl)pyrrolidine-2-carboxamide]
SMARC A4 Hela HiBit Dmax(%) (SMARCA4; [1]): B (B (70-90% degradation))
DC50 (SMARCA4): < 100 nM
SMARC A2 Hela HiBit Dmax (%) (SMARCA2; [2]): A (A (>90% degradation))
DC50 (SMARCA2): < 100 nM

COCCOC[C@H](NC(=O)[C@@H]1C[C@@H](O)CN1C(=O)[C@@H](n1cc([C@H]2CC[C@H](CN3CCC(c4ccc5c(c4)-n4c(nc(=O)c6c(Cl)cccc64)C54CCCCC4)CC3)CC2)nn1)C(C)(C)C)c1ccc(-c2scnc2C)cc1 [Compound A86, (2S,4R)-1-((S)-2-(4-((1r,4S)-4-((4-(4′-chloro-5′-oxo-5′H-spiro[cyclohexane-1,7′-indolo[1,2-a]quinazolin]-10′-yl)piperidin-1-yl)methyl)cyclohexyl)-1H-1,2,3-triazol-1-yl)-3,3-dimethylbutanoyl)-4-hydroxy-N-(®-2-(2-methoxyethoxy)-1-(4-(4-methylthiazol-5-yl)phenyl)ethyl)pyrrolidine-2-carboxamide]
DC50 (SMARCA4; [1]): > 1000 nM
Dmax (SMARCA4; [3]): 50 to 69%
DC50 (SMARCA2; [2]): < 10 nM
Dmax (SMARCA2; [2]): > 90%

Cc1ncsc1-c1ccc([C@H](CC(=O)N(C)C)NC(=O)[C@@H]2C[C@@H](O)CN2C(=O)[C@@H](n2cc([C@H]3CC[C@H](CN4CCC(c5ccc6c(c5)-n5c(nc(=O)c7c(Cl)cccc75)C65CCCCC5)CC4)CC3)nn2)C(C)(C)C)cc1 [Compound A147, (2S,4R)-1-((S)-2-(4-((1r,4S)-4-((4-(4′-chloro-5′-oxo-5′H-spiro[cyclohexane-1,7′-indolo[1,2-a]quinazolin]-10′-yl)piperidin-1-yl)methyl)cyclohexyl)-1H-1,2,3-triazol-1-yl)-3,3-dimethylbutanoyl)-N—((S)-3-(dimethylamino)-1-(4-(4-methylthiazol-5-yl)phenyl)-3-oxopropyl)-4-hydroxypyrrolidine-2-carboxamide]
DC50 (SMARCA4; [1]): > 1000 nM
Dmax (SMARCA4; [3]): 50 to 69%
DC50 (SMARCA2; [2]): < 10 nM
Dmax (SMARCA2; [2]): > 90%

Cc1ncsc1-c1ccc([C@H](CNC(=O)[C@H]2CC[C@H](CN3CCC(c4ccc5c(c4)-n4c(nc(=O)c6c(Br)cccc64)C54CCCCC4)CC3)CC2)NC(=O)[C@@H]2C[C@@H](O)CN2C(=O)[C@@H](n2cc(C3CC3)nn2)C(C)(C)C)cc1 [Compound A116, (2S,4R)—N—((R)-2-((1r,4R)-4-((4-(4′-bromo-5′-oxo-5′H-spiro[cyclohexane-1,7′-indolo[1,2-a]quinazolin]-10′-yl)piperidin-1-yl)methyl)cyclohexane-1-carboxamido)-1-(4-(4-methylthiazol-5-yl)phenyl)ethyl)-1-((S)-2-(4-cyclopropyl-1H-1,2,3-triazol-1-yl)-3,3-dimethylbutanoyl)-4-hydroxypyrrolidine-2-carboxamide]
DC50 (SMARCA4; [1]): > 1000 nM
Dmax (SMARCA4; [3]): < 50%
DC50 (SMARCA2; [2]): > 1000 nM
Dmax (SMARCA2; [2]): < 50%

Cc1ncsc1-c1ccc([C@H](C)NC(=O)[C@@H]2C[C@@H](O)CN2C(=O)[C@@H](n2cc(CCCCN3CCC(c4ccc5c(c4)C4(CCCCC4)c4nc(=O)c6c(Br)cccc6n4-5)CC3)nn2)C(C)(C)C)cc1 [Compound A56, (2S,4R)-1-((S)-2-(4-(4-(4-(4′-bromo-5′-oxo-5′H-spiro[cyclohexane-1,7′-indolo[1,2-a]quinazolin]-9′-yl)piperidin-1-yl)butyl)-1H-1,2,3-triazol-1-yl)-3,3-dimethylbutanoyl)-4-hydroxy-N—((S)-1-(4-(4-methylthiazol-5-yl)phenyl)ethyl)pyrrolidine-2-carboxamide]
DC50 (SMARCA4; [1]): < 100 nM
Dmax (SMARCA4; [4]): > 90%
DC50 (SMARCA2; [2]): < 100 nM
Dmax (SMARCA2; [2]): > 90%

Cc1ncsc1-c1ccc([C@H](C)NC(=O)[C@@H]2C[C@@H](O)CN2C(=O)[C@H](C2CCN(C(=O)CCCCN3CCC(c4ccc5c(c4)-n4c(nc(=O)c6c(Cl)cccc64)C54CCCCC4)CC3)CC2)n2cc(C3CC3)nn2)cc1 [Compound A107, (2S,4R)-1-((S)-2-(1-(5-(4-(4′-chloro-5′-oxo-5′H-spiro[cyclohexane-1,7′-indolo[1,2-a]quinazolin]-10′-yl)piperidin-1-yl)pentanoyl)piperidin-4-yl)-2-(4-cyclopropyl-1H-1,2,3-triazol-1-yl)acetyl)-4-hydroxy-N—((S)-1-(4-(4-methylthiazol-5-yl)phenyl)ethyl)pyrrolidine-2-carboxamide]
DC50 (SMARCA4; [1]): > 1000 nM
Dmax (SMARCA4; [3]): < 50%
DC50 (SMARCA2; [2]): 100 to 1000 nM
Dmax (SMARCA2; [2]): 70 to 90%

Cc1ncsc1-c1ccc([C@H](C)NC(=O)[C@@H]2C[C@@H](O)CN2C(=O)[C@@H](n2cc(CCN3CCC(c4ccc5c(c4)-n4c(nc(=O)c6c(Br)cccc64)C54CCCCC4)CC3)nn2)C(C)(C)C)cc1 [Compound A48, (2S,4R)-1-((S)-2-(4-(2-(4-(4′-bromo-5′-oxo-5′H-spiro[cyclohexane-1,7′-indolo[1,2-a]quinazolin]-10′-yl)piperidin-1-yl)ethyl)-1H-1,2,3-triazol-1-yl)-3,3-dimethylbutanoyl)-4-hydroxy-N—((S)-1-(4-(4-methylthiazol-5-yl)phenyl)ethyl)pyrrolidine-2-carboxamide]
SMARC A4 Hela HiBit Dmax(%) (SMARCA4; [1]): C (C (50-69% degradation))
DC50 (SMARCA4): 100 to 500 nM
SMARC A2 Hela HiBit Dmax (%) (SMARCA2; [2]): A (A (>90% degradation))
DC50 (SMARCA2): < 100 nM

Cc1ncsc1-c1ccc([C@H](CN2CCOCC2)NC(=O)[C@@H]2C[C@@H](O)CN2C(=O)[C@H](C2CCCCC2)n2cc([C@H]3CC[C@H](CN4CCC(c5ccc6c(c5)-n5c(nc(=O)c7c(Br)cccc75)C65CCCCC5)CC4)CC3)nn2)cc1 [Compound A123, (2S,4R)-1-((S)-2-(4-((1r,4S)-4-((4-(4′-bromo-5′-oxo-5′H-spiro[cyclohexane-1,7′-indolo[1,2-a]quinazolin]-10′-yl)piperidin-1-yl)methyl)cyclohexyl)-1H-1,2,3-triazol-1-yl)-2-cyclohexylacetyl)-4-hydroxy-N—((R)-1-(4-(4-methylthiazol-5-yl)phenyl)-2-morpholinoethyl)pyrrolidine-2-carboxamide]
DC50 (SMARCA4; [1]): 10 to 100 nM
Dmax (SMARCA4; [3]): 70 to 90%
DC50 (SMARCA2; [2]): < 10 nM
Dmax (SMARCA2; [2]): > 90%

Cc1ncsc1-c1ccc([C@H](C)NC(=O)[C@@H]2C[C@@H](O)CN2C(=O)[C@@H](n2cc(CCCCCN3CCC(c4ccc5c(c4)C4(CCCCC4)c4nc(=O)c6c(Br)cccc6n4-5)CC3)nn2)C(C)(C)C)cc1 [Compound A57, (2S,4R)-1-((S)-2-(4-(5-(4-(4′-bromo-5′-oxo-5′H-spiro[cyclohexane-1,7′-indolo[1,2-a]quinazolin]-9′-yl)piperidin-1-yl)pentyl)-1H-1,2,3-triazol-1-yl)-3,3-dimethylbutanoyl)-4-hydroxy-N—((S)-1-(4-(4-methylthiazol-5-yl)phenyl)ethyl)pyrrolidine-2-carboxamide]
DC50 (SMARCA4; [1]): < 100 nM
Dmax (SMARCA4; [4]): > 90%
DC50 (SMARCA2; [2]): < 100 nM
Dmax (SMARCA2; [2]): > 90%

COCCOCCOCCOC[C@H](NC(=O)[C@@H]1C[C@@H](O)CN1C(=O)[C@@H](n1cc([C@H]2CC[C@H](CN3CCC(c4ccc5c(c4)-n4c(nc(=O)c6c(Cl)cccc64)C54CCCCC4)CC3)CC2)nn1)C(C)(C)C)c1ccc(-c2scnc2C)cc1 [Compound A148, (2S,4R)-1-((S)-2-(4-((1r,4S)-4-((4-(4′-chloro-5′-oxo-5′H-spiro[cyclohexane-1,7′-indolo[1,2-a]quinazolin]-10′-yl)piperidin-1-yl)methyl)cyclohexyl)-1H-1,2,3-triazol-1-yl)-3,3-dimethylbutanoyl)-4-hydroxy-N—((R)-13-(4-(4-methylthiazol-5-yl)phenyl)-2,5,8,11-tetraoxatridecan-13-yl)pyrrolidine-2-carboxamide]
DC50 (SMARCA4; [1]): > 1000 nM
Dmax (SMARCA4; [3]): 50 to 69%
DC50 (SMARCA2; [2]): < 10 nM
Dmax (SMARCA2; [2]): > 90%
